For twelve compounds, IC50 results are on record in patent publication US9440981B2, “Pyrrolo[2, 1-F] [1,2,4]triazine derivative and use thereof for treating tumors” (PHARMABLOCK (NANJING) R&D CO. LTD., priority 2012, dated 2016).

Each structure is given as a SMILES string.

What all share (assay type): cell-based
For assay [1], the system named is human prostatic cancer cell line PC-3. Nature of the assay: MTT assay, growth inhibition of PC-3 cells. Conditions: 96-hr culture, read-out: IC50 ± SD, PC-3. As to the method: (§1) The inhibition of the compounds of the present invention on growth of a variety of human tumor cell lines is evaluated by MTT assay.
(§2) Method: cells in exponential phase (human gastric cancer cell line SGC-7901, human non-small cell lung cancer cell line A549, human breast cancer cell line BT-549, human prostatic cancer cell line PC-3, human colon cancer cell line HT-29, and human liver cancer cell line SMMC-7721) are seeded at a density of 1.5×10^4 in a 96-well plate. After 24-hr culture, the cells are grown to confluent and the previous culture medium is aspirated. The test includes a control group, and a treatment group. In the control group, a 1640 medium containing 10% fetal bovine serum is replenished; and in the treatment group, a medium containing 100 μM, 50 μM, 10 μM, 1 μM, 0.1 μM, 0.01 μM, 0.001 μM, 0.0001 μM, and 0.00001 μM test compound is replenished. After 96-hr culture, 5 mg/mL MTT is added, and cultured in a CO2 incubator for another 4 hrs. Then, 100 μL of the supernatant is aspirated from the upper portion of the culture medium, and placed in the dark for 10 min after 100 μL DMSO is added. The absorbance (at 570 nm) is measured on a microplate reader (available from Sunrise Co., Ltd.), and the cell viability is calculated from the absorbance. 6 replicate wells are set for each treatment. Cell viability (%)=ΔODtreatment/ΔODcontrol×100.
(§3) The ID50 values of six compounds for inhibiting the growth of numerous human tumor cell lines are calculated by Sigmaplot 10.0 software and are shown in Table 1.
In general terms: Tetrazolium dyes change colour on reduction, which living cells bring about.

The test system of assay [2] is human colon cancer cell line HT-29. Nature of the assay: MTT assay, growth inhibition of HT-29 cells. Conditions: 96-hr culture, read-out: IC50 ± SD, HT-29. As for the experimental part: as §1, §2, §3
Assay [3] relates to human breast cancer cell line BT-549. Nature of the assay: MTT assay, growth inhibition of BT-549 cells. Conditions: 96-hr culture, read-out: IC50 ± SD, BT-549. As to the method: as §1, §2, §3
The subject of assay [4] is human gastric cancer cell line SGC-7901. Nature of the assay: MTT assay, growth inhibition of SGC-7901 cells. Conditions: 96-hr culture, read-out: IC50 ± SD, SGC-7901. As to the method:
as §1, §2, §3

The subject of assay [5] is human non-small cell lung cancer cell line A549. Nature of the assay: MTT assay, growth inhibition of A549 cells. The note with it: 96-hr culture, read-out: IC50 ± SD, A549. As to the method:
as §1, §2, §3

Assay [6] relates to human liver cancer cell line SMMC-7721. Nature of the assay: MTT assay, growth inhibition of SMMC-7721 cells. Conditions: 96-hr culture, read-out: IC50 ± SD, SMMC-7721. As to the method: as §1, §2, §3

Usually IC50 stands for the concentration needed to halve the response being measured. In the case of `CS(=O)(=O)N1CCN(Cc2cc3c(N4CCOCC4)nc(-c4cccc5[nH]ccc45)nn3c2)CC1` [Compound I-1], the IC50 stood at 0.51 ± 0.06 µM in assay [1]; 0.99 ± 0.04 µM in assay [2]; 1.27 ± 0.08 µM in assay [3]; 2.15 ± 0.14 µM in assay [4]; 2.61 ± 0.34 µM in assay [5]; 1.69 ± 0.18 µM in assay [6].

Take `CS(=O)(=O)N1CCN(Cc2cc3c(N4CCOCC4)nc(-c4cccc5[nH]ncc45)nn3c2)CC1` [Compound I-2]: the IC50 in assay [1] turned out to be 0.44 ± 0.08 µM; in assay [2], 0.16 ± 0.03 µM; in assay [3], 0.35 ± 0.15 µM; in assay [4], 1.35 ± 0.28 µM; in assay [5] it was 2.95 ± 0.45 µM; in assay [6], 2.53 ± 1.49 µM.

As for `CS(=O)(=O)N1CCN(Cc2cc3c(N4CCOCC4)nc(-c4ccnc5[nH]ccc45)nn3c2)CC1` [Compound I-3], the half-maximal inhibitory concentration (IC50) was 0.78 ± 0.36 µM in assay [1]; 0.96 ± 0.31 µM in assay [2]; 1.99 ± 0.07 µM in assay [3]; 2.52 ± 0.06 µM in assay [4]; 2.73 ± 0.52 µM in assay [5]; 1.72 ± 0.07 µM in assay [6].

Regarding `CS(=O)(=O)N1CCN(Cc2cc3c(N4CCOCC4)nc(-c4cnc(N)nc4)nn3c2)CC1` [Compound I-4], the IC50 in assay [1] is 1.17 ± 0.14 µM; in assay [2], 1.21 ± 0.04 µM; in assay [3], 0.61 ± 0.07 µM; in assay [4], 0.83 ± 0.03 µM; in assay [5], 0.62 ± 0.06 µM; in assay [6], 0.63 ± 0.11 µM.

For the compound `CS(=O)(=O)N1CCN(C(=O)c2cc3c(N4CCOCC4)nc(-c4cccc5[nH]ncc45)nn3c2)CC1` [Compound I-5], the half-inhibitory concentration (IC50) in assay [1] was found to be 0.22 ± 0.01 µM; in assay [2] it was 0.73 ± 0.02 µM; in assay [3], 0.59 ± 0.22 µM; in assay [4] it was 3.35 ± 0.46 µM; in assay [5], 1.96 ± 0.33 µM; in assay [6], 2.15 ± 0.19 µM.

Turning to `CC(C)(O)c1cc2c(N3CCOCC3)nc(-c3cccc4[nH]ncc34)nn2c1` [Compound I-6], the IC50 was determined as 1.05 ± 0.64 µM in assay [1]; 2.15 ± 0.19 µM in assay [2]; 2.6 ± 0.67 µM in assay [3]; 1.01 ± 0.02 µM in assay [4]; 1.35 ± 0.28 µM in assay [5]; 1.84 ± 0.32 µM in assay [6].

Take `CCS(=O)(=O)N1CCN(Cc2cc3c(N4CCOCC4)nc(-c4cnc(N)nc4)nn3c2)CC1` [Compound I-7]: the IC50 in assay [1] came to 0.29 ± 0.13 µM; in assay [2], 0.47 ± 0.09 µM; in assay [3] it was 0.34 ± 0.04 µM; in assay [4], 2.39 ± 0.48 µM; in assay [5] it was 1.93 ± 0.23 µM; in assay [6], 1.63 ± 0.39 µM.

Regarding `CC(=O)N1CCN(Cc2cc3c(N4CCOCC4)nc(-c4cnc(N)nc4)nn3c2)CC1` [Compound I-8], the IC50 was determined as 0.14 ± 0.09 µM in assay [1]; 0.29 ± 0.05 µM in assay [2]; 0.11 ± 0.02 µM in assay [3]; 1.42 ± 0.23 µM in assay [4]; 1.03 ± 0.14 µM in assay [5]; 1.28 ± 0.23 µM in assay [6].

As to `Nc1ncc(-c2nc(N3CCOCC3)c3cc(CN4CCN(C(=O)C5CC5)CC4)cn3n2)cn1` [Compound I-9], the IC50 in assay [1] is 0.93 ± 0.18 µM; in assay [2] it was 0.87 ± 0.16 µM; in assay [3] it was 0.41 ± 0.11 µM; in assay [4], 2.51 ± 0.35 µM; in assay [5] it was 3.21 ± 0.38 µM; in assay [6] it was 3.14 ± 0.38 µM.

For the compound `C[C@H](O)C(=O)N1CCN(Cc2cc3c(N4CCOCC4)nc(-c4cnc(N)nc4)nn3c2)CC1` [Compound I-10], the IC50 is 0.2 ± 0.11 µM in assay [1]; 0.31 ± 0.08 µM in assay [2]; 0.13 ± 0.03 µM in assay [3]; 1.29 ± 0.14 µM in assay [4]; 1.48 ± 0.19 µM in assay [5]; 1.05 ± 0.24 µM in assay [6].

Consider `C[C@@H](O)C(=O)N1CCN(Cc2cc3c(N4CCOCC4)nc(-c4cnc(N)nc4)nn3c2)CC1` [Compound I-11], for which the IC50 stood at 0.25 ± 0.12 µM in assay [1]; 0.85 ± 0.18 µM in assay [2]; 0.29 ± 0.13 µM in assay [3]; 1.49 ± 0.15 µM in assay [4]; 1.5 ± 0.2 µM in assay [5]; 2.05 ± 0.28 µM in assay [6].

As to `CS(=O)(=O)N1CCN(Cc2cc3nc(-c4cccc5[nH]ncc45)nc(N4CCOCC4)c3s2)CC1` [GDC-0941, reference compound], the concentration for half-maximal inhibition (IC50) in assay [1] was 0.22 ± 0.02 µM; in assay [2], 0.78 ± 0.02 µM; in assay [3], 0.59 ± 0.22 µM; in assay [4] it was 9.37 ± 1.43 µM; in assay [5] it was 1.98 ± 0.34 µM; in assay [6], 2.45 ± 0.19 µM.
